Several values for one entry are separate records, joined by “and”; a condition that tells them apart may be missing. Equal values may be shown once.
What was measured:
[1] = biological target: human serum albumin (Homo sapiens, UniProt P02768); experiment: Protein binding to human serum albumin; assay type: in vitro ADME
[2] = Pharmacokinetic evaluation of bevirimat HPβCD formulation, intravenous, male Cynomolgus monkeys
Protocol: Six male Cynomolgus monkeys having an initial body weight of about 3.5 to about 4.5 kg are allowed 7 days to acclimate to their individual housing units. Monkeys are supplied with water and a commercial diet ad libitum prior to the study initiation. Food is withheld from the monkeys for a minimum of twelve hours before the study and during the study until four hours postdose when food is returned. Water is supplied ad libitum.
Test formulations are administered to the monkeys at time 0 on appropriate days. Test formulations will be dosed orally via oral gavage or intravenously.
Samples are drawn at the frequencies indicated below. Each blood sample (0.5 mL) is collected from the monkey's saphenous vein via a butterfly catheter and placed into a chilled polypropylene tube containing sodium heparin as the anticoagulant. Blood samples are centrifuged at a temperature of 4° C. at a speed of 3,000 rpm for 15 minutes. All samples are maintained chilled throughout processing. Plasma is collected after centrifugation, pipetted into a 2-mL polypropylene microtube, and frozen on dry-ice pending analytical evaluation.

[3] = Solubility of bevirimat and bevirimat dimeglumine in single vehicles; settings: in 100% water, 100% saline, 100% dextrose, 100% PEG 400, and 25% Poloxamer 188
[4] = 2.5 mg FAE/mL in 10% HPβCD+3% Mannitol in water, 10 mg FAE/monkey intravenous injection, monkeys 115,116,120,AVG
[5] = male, cynomolgus monkey, plasma, iv, 10 mg

Sequence of human serum albumin (P02768 25-609): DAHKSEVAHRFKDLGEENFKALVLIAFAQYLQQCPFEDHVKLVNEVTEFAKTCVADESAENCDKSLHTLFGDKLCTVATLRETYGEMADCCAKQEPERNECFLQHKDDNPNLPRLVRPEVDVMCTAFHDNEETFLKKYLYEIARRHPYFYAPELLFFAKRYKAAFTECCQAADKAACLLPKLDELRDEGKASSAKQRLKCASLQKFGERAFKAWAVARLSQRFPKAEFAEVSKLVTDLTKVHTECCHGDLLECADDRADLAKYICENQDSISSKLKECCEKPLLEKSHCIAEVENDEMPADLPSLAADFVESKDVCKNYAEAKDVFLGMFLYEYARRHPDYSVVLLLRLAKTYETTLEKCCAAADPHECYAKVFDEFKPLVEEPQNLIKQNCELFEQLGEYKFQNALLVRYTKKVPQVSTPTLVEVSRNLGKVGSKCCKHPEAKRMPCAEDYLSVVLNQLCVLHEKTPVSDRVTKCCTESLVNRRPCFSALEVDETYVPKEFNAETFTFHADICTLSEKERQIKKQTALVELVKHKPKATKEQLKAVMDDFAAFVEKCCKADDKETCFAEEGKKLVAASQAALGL

C=C(C)[C@@H]1CC[C@]2(C(=O)O)CC[C@]3(C)[C@H](CC[C@@H]4[C@@]5(C)CC[C@H](OC(=O)CC(C)(C)C(=O)O)C(C)(C)[C@@H]5CC[C@]43C)[C@@H]12 [Bevirimat, 3-O-(3′,3′-dimethylsuccinyl)betulinic acid]
fraction unbound [1]: ≤ 0.01
AUCall [2, 4]: 81549 ng·h/mL and 84743 ng·h/mL
C0 [2, 4]: 54.673 µg/mL and 39.4 µg/mL
CL [2, 4]: 0.023 L/h/kg and 0.032 L/h/kg and 0.025 L/h/kg
Dnzed AUCall [2, 4]: 46879 ng·h/mL/mg/kg and 41590 ng·h/mL/mg/kg and 31505 ng·h/mL/mg/kg and 39991 ng·h/mL/mg/kg
t1/2 [2, 4]: 24.7 h and 15.5 h and 18.3 h
Plasma Concentration ([2]; 0.033 hr, 2.5 mg FAE/mL in 10% HPβCD+3% Mannitol in water, 10 mg FAE/monkey intravenous injection, monkeys 115,116,120,AVG): 39400 ng/mL
Plasma Concentration ([2]; 0.25 hr, 2.5 mg FAE/mL in 10% HPβCD+3% Mannitol in water, 10 mg FAE/monkey intravenous injection, monkeys 115,116,120,AVG): 41600 ng/mL and 23100 ng/mL and 32333 ng/mL
Plasma Concentration ([2]; 0.50 hr, 2.5 mg FAE/mL in 10% HPβCD+3% Mannitol in water, 10 mg FAE/monkey intravenous injection, monkeys 115,116,120,AVG): 19800 ng/mL and 14800 ng/mL and 19967 ng/mL
Plasma Concentration ([2]; 1.0 hr, 2.5 mg FAE/mL in 10% HPβCD+3% Mannitol in water, 10 mg FAE/monkey intravenous injection, monkeys 115,116,120,AVG): 20200 ng/mL and 11700 ng/mL and 18233 ng/mL
Plasma Concentration ([2]; 12 hr, 2.5 mg FAE/mL in 10% HPβCD+3% Mannitol in water, 10 mg FAE/monkey intravenous injection, monkeys 115,116,120,AVG): 384 ng/mL and 404 ng/mL and 517 ng/mL
Plasma Concentration ([2]; 24 hr, 2.5 mg FAE/mL in 10% HPβCD+3% Mannitol in water, 10 mg FAE/monkey intravenous injection, monkeys 115,116,120,AVG): 367 ng/mL and 245 ng/mL and 320 ng/mL
Plasma Concentration ([2]; 48 hr, 2.5 mg FAE/mL in 10% HPβCD+3% Mannitol in water, 10 mg FAE/monkey intravenous injection, monkeys 115,116,120,AVG): 148 ng/mL and 81.0 ng/mL and 121 ng/mL
Plasma Concentration ([2]; 72 hr, 2.5 mg FAE/mL in 10% HPβCD+3% Mannitol in water, 10 mg FAE/monkey intravenous injection, monkeys 115,116,120,AVG, BLOQ=below 50 ng/mL): BLOQ
concentration at 0.033 hr ([2]; male, cynomolgus monkey, in vivo, iv, 10 mg FAE/monkey, Plasma concentration, 0.033 hr, 2.5 mg FAE/mL in 10% HPβCD+3% Mannitol in water, 10 mg FAE/monkey intravenous injection, monkeys 115,116,120,AVG): 50.6 µg/mL
concentration at 0.25 hr ([2]; male, cynomolgus monkey, in vivo, iv, 10 mg FAE/monkey, Plasma concentration, 0.25 hr, 2.5 mg FAE/mL in 10% HPβCD+3% Mannitol in water, 10 mg FAE/monkey intravenous injection, monkeys 115,116,120,AVG): 32300 ng/mL
concentration at 0.5 hr ([2]; male, cynomolgus monkey, in vivo, iv, 10 mg FAE/monkey, Plasma concentration, 0.50 hr, 2.5 mg FAE/mL in 10% HPβCD+3% Mannitol in water, 10 mg FAE/monkey intravenous injection, monkeys 115,116,120,AVG): 25300 ng/mL
concentration at 1 hr ([2]; male, cynomolgus monkey, in vivo, iv, 10 mg FAE/monkey, Plasma concentration, 1.0 hr, 2.5 mg FAE/mL in 10% HPβCD+3% Mannitol in water, 10 mg FAE/monkey intravenous injection, monkeys 115,116,120,AVG): 22800 ng/mL
concentration at 12 hr ([2]; male, cynomolgus monkey, in vivo, iv, 10 mg FAE/monkey, Plasma concentration, 12 hr, 2.5 mg FAE/mL in 10% HPβCD+3% Mannitol in water, 10 mg FAE/monkey intravenous injection, monkeys 115,116,120,AVG): 762 ng/mL
concentration at 24 hr ([2]; male, cynomolgus monkey, in vivo, iv, 10 mg FAE/monkey, Plasma concentration, 24 hr, 2.5 mg FAE/mL in 10% HPβCD+3% Mannitol in water, 10 mg FAE/monkey intravenous injection, monkeys 115,116,120,AVG): 347 ng/mL
concentration at 48 hr ([2]; male, cynomolgus monkey, in vivo, iv, 10 mg FAE/monkey, Plasma concentration, 48 hr, 2.5 mg FAE/mL in 10% HPβCD+3% Mannitol in water, 10 mg FAE/monkey intravenous injection, monkeys 115,116,120,AVG): 134 ng/mL
AUC ([2]; male, cynomolgus monkey, in vivo, iv, 10 mg, AUCall, 2.5 mg FAE/mL in 10% HPβCD+3% Mannitol in water, 10 mg FAE/monkey intravenous injection, monkeys 115,116,120,AVG): 114000 ng·h/mL
C0 ([2]; male, cynomolgus monkey, in vivo, iv, 10 mg, C0, 2.5 mg FAE/mL in 10% HPβCD+3% Mannitol in water, 10 mg FAE/monkey intravenous injection, monkeys 115,116,120,AVG): 54.2 µg/mL
half-life ([2]; male, cynomolgus monkey, in vivo, iv, 10 mg, t1/2, 2.5 mg FAE/mL in 10% HPβCD+3% Mannitol in water, 10 mg FAE/monkey intravenous injection, monkeys 115,116,120,AVG): 882 min
AUC [2, 5]: 58300 ng·h/mL
C0 [2, 5]: 49.4 µg/mL
Tmax [2, 5]: 0 h
clearance ([2]; male, cynomolgus monkey, plasma, iv, 10 mg, CL, 2.5 mg FAE/mL in 10% HPβCD+3% Mannitol in water, 10 mg FAE/monkey intravenous injection, monkeys 115,116,120,AVG): 0.333 mL/min/kg
solubility (in words) [3]: poorly soluble

Reference: US20100216751A1 (priority 2007, published 2010)
